Data as given in the supplement of paper PMC11061612.

What was measured:
[1] = compound: CC1(C)CCC(CN2CCN(c3ccc(C(=O)NS(=O)(=O)c4ccc(NCC5CCOCC5)c([N+](=O)[O-])c4)c(Oc4cnc5[nH]ccc5c4)c3)CC2)=C(c2ccc(Cl)cc2)C1 [Venetoclax]; details: max 1 µM
Outline: (§1)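 Cancer cell lines were seeded into 1536-well plates in 7.5 μl medium (DMEM/F12 or RPMI, 10% FBS), held 24 hours at 37°C and 5% CO2, and dosed for 72 hours with final DMSO typically 0.2%. Luminescence from CellTiter-Glo 2.0, scaled between blank-well and DMSO-well means, served as viability. The single-agent IC50 was obtained from dose-response fits with a non-linear mixed effects model, each fit being a two-parameter logistic curve.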

[2] = compound: COc1nnc2ccc(N3CCC(c4ccc(OCCN5CCN(C)C(=O)[C@H]5C)cc4)CC3)nn12 [AZD5153]; details: max 1 µM
Outline: as §1

[3] = compound: C[C@@H](Nc1cc(F)cc(F)c1)c1cc(C(=O)N(C)C)cc2c(=O)cc(N3CCOCC3)oc12 [AZD8186]; details: max 10 µM
Outline: as §1

[4] = compound: Cc1c2c(nn1C)CSCc1cc(n(C)n1)CSc1cc(c3ccccc3c1)OCCCc1c(C(=O)O)n(C)c3c-2c(Cl)ccc13 [AZD5991]; details: max 1 µM
Outline: as §1

[5] = compound: CN(CC[C@H](CSC1=CC=CC=C1)NC2=C(C=C(C=C2)S(=O)(=O)NC(=O)C3=CC=C(C=C3)N4CCC(CC4)[C@H](C5=CC=CC=C5C6=CC=C(C=C6)Cl)O)S(=O)(=O)C(F)(F)F)CCO [AZD4320]; details: max 1 µM
Outline: as §1

[6] = compound: Cc1nc(-c2cn3c(n2)-c2ccc(-c4cnn(C(C)(C)C(N)=O)c4)cc2OCC3)n(C(C)C)n1 [Taselisib]; details: max 10 µM
Outline: as §1

[7] = compound: O=C(Nc1ccc2[nH]nc(-c3ccncc3)c2c1)[C@@H]1CCN(CC(=O)N2CCN(c3ccc(-c4ncccn4)cc3)CC2)C1; details: max 5 µM
Outline: as §1

[8] = compound: C[C@@H](Oc1cc(-c2cnn(C3CCNCC3)c2)cnc1N)c1c(Cl)ccc(F)c1Cl [Crizotinib]; details: max 10 µM
Outline: as §1

[9] = compound: Cn1cnc2c(F)c(Nc3ccc(Br)cc3Cl)c(C(=O)NOCCO)cc21 [Selumetinib]; details: max 10 µM
Outline: as §1

[10] = compound: C=CCn1c(=O)c2cnc(Nc3ccc(N4CCN(C)CC4)cc3)nc2n1-c1cccc(C(C)(C)O)n1 [AZD1775]; details: max 3 µM
Outline: as §1

[11] = compound: C[C@@H]1COCCN1C2=NC(=NC(=C2)C3(CC3)[S@](=N)(=O)C)C4=C5C=CNC5=NC=C4 [AZD6738]; details: max 10 µM
Outline: as §1

[12] = compound: CC(=O)Nc1cccc(-n2c(=O)n(C3CC3)c(=O)c3c(Nc4ccc(I)cc4F)n(C)c(=O)c(C)c32)c1 [Trametinib]; details: max 1 µM
Outline: as §1

[13] = compound: O=c1[nH]cc(F)c(=O)[nH]1 [5-Fluorouracil]; details: max 20 µM
Outline: as §1

[14] = compound: COc1cccc(OCCCN)c1-c1cc(Nc2cnc(C#N)cn2)n[nH]1 [Prexasertib]; details: max 1 µM
Outline: as §1

[15] = compound: CN(C)CCCOc1ccc(-c2ccc3ncc4c(c3c2)n(C2CCOCC2)c(=O)n4C)cn1 [AZD0156]; details: max 3 µM
Outline: as §1

[16] = compound: NC1(c2ccc(-c3nc4ccn5c(=O)[nH]nc5c4cc3-c3ccccc3)cc2)CCC1 [MK-2206]; details: max 10 µM
Outline: as §1

[17] = compound: CCc1c2c(nc3ccc(O)cc13)-c1cc3c(c(=O)n1C2)COC(=O)[C@]3(O)CC [SN-38]; details: max 0.3 µM
Outline: as §1

[18] = compound: COc1cc(Nc2ncc3c(n2)-c2ccc(Cl)cc2C(c2c(F)cccc2OC)=NC3)ccc1C(=O)O [Alisertib]; details: max 10 µM
Outline: as §1

[19] = compound: Cc1cc2ncnn2cc1Nc1ncc2c(n1)n(C1CCOCC1)c(=O)n2C [AZD7648]; details: max 10 µM
Outline: as §1

[20] = compound: COc1cc([C@@H]2c3cc4c(cc3[C@@H](O[C@@H]3O[C@@H]5CO[C@@H](C)O[C@H]5[C@H](O)[C@H]3O)[C@H]3COC(=O)[C@H]23)OCO4)cc(OC)c1O [Etoposide]; details: max 10 µM
Outline: as §1

[21] = compound: COc1cccc2c1C(=O)c1c(O)c3c(c(O)c1C2=O)C[C@@](O)(C(=O)CO)C[C@@H]3O[C@H]1C[C@H](N)[C@H](O)[C@H](C)O1 [Doxorubicin]; details: max 1 µM
Outline: as §1

[22] = compound: CC1=CN2[C@@H](C1)C=NC3=CC(=C(C=C3C2=O)OC)OCCCCCOC4=C(C=C5C(=C4)N=C[C@@H]6CC(=CN6C5=O)C)OC [SG3199]; details: max 0.001 µM
Outline: as §1

[23] = compound: O=C(c1cc(Cc2n[nH]c(=O)c3ccccc23)ccc1F)N1CCN(C(=O)C2CC2)CC1 [Olaparib]; details: max 10 µM
Outline: as §1

[24] = compound: CC(C)n1c(=O)n(C)c2cnc3cc(F)c(-c4ccc(OCCCN5CCCCC5)nc4)cc3c21 [AZD1390]; details: max 0.3 µM
Outline: as §1

[25] = compound: COc1cc2ncnc(Nc3ccc(F)c(Cl)c3)c2cc1OCCCN1CCOCC1 [Gefitinib]; details: max 10 µM
Outline: as §1

[26] = compound: C1CN(CCC1(C(=O)N[C@@H](CCO)C2=CC=C(C=C2)Cl)N)C3=NC=NC4=C3C=CN4 [AZD5363]; details: max 10 µM
Outline: as §1

[27] = compound: CC(=O)O[C@H]1C(=O)[C@@]2(C)[C@H]([C@H](OC(=O)c3ccccc3)[C@]3(O)C[C@H](OC(=O)[C@H](O)[C@@H](NC(=O)c4ccccc4)c4ccccc4)C(C)=C1C3(C)C)[C@]1(OC(C)=O)CO[C@@H]1C[C@@H]2O [Paclitaxel]; details: max 3 µM
Outline: as §1

[28] = compound: C1CC(C1)(C(=O)[O-])C(=O)[O-].N.N.[Pt+2] [Carboplatin]; details: max 10 µM
Outline: as §1

[29] = compound: C[C@@H](c1ccc2nccn2c1)n1nnc2ncc(-c3cnn(C)c3)nc21 [Savolitinib]; details: max 1 µM
Outline: as §1

[30] = compound: CS(=O)(=O)CCNCc1ccc(-c2ccc3ncnc(Nc4ccc(OCc5cccc(F)c5)c(Cl)c4)c3c2)o1 [Lapatinib]; details: max 10 µM
Outline: as §1

[31] = compound: Nc1ccn([C@@H]2O[C@H](CO)[C@@H](O)C2(F)F)c(=O)n1 [Gemcitabine]; details: max 0.3 µM
Outline: as §1

[32] = compound: CC1=C(C(=CC=C1)Cl)NC(=O)C2=CN=C(S2)NC3=CC(=NC(=N3)C)N4CCN(CC4)CCO [Dasatinib]; details: max 2 µM
Outline: as §1

[33] = compound: CC(=O)c1c(C)c2cnc(Nc3ccc(N4CCNCC4)cn3)nc2n(C2CCCC2)c1=O [Palbociclib]; details: max 10 µM
Outline: as §1

[34] = compound: N#Cc1cnc(Nc2cc(NC[C@H]3CNCCO3)c(C(F)(F)F)cn2)cn1 [SRA737]; details: max 10 µM
Outline: as §1

[35] = compound: CCN(CCO)CCCOc1ccc2c(Nc3cc(CC(=O)Nc4cccc(F)c4)[nH]n3)ncnc2c1 [AZD2811]; details: max 1 µM
Outline: as §1

Row | Cell Line | IC50, cell viability 72 h [1] [nM] | IC50, cell viability 72 h [2] [nM] | IC50, cell viability 72 h [3] [nM] | IC50, cell viability 72 h [4] [nM] | IC50, cell viability 72 h [5] [nM] | IC50, cell viability 72 h [6] [nM] | IC50, cell viability 72 h [7] [nM] | IC50, cell viability 72 h [8] [nM] | IC50, cell viability 72 h [9] [nM] | IC50, cell viability 72 h [10] [nM] | IC50, cell viability 72 h [11] [nM] | IC50, cell viability 72 h [12] [nM] | IC50, cell viability 72 h [13] [nM] | IC50, cell viability 72 h [14] [nM] | IC50, cell viability 72 h [15] [nM] | IC50, cell viability 72 h [16] [nM] | IC50, cell viability 72 h [17] [nM] | IC50, cell viability 72 h [18] [nM] | IC50, cell viability 72 h [19] [nM] | IC50, cell viability 72 h [20] [nM] | IC50, cell viability 72 h [21] [nM] | IC50, cell viability 72 h [22] [nM] | IC50, cell viability 72 h [23] [nM] | IC50, cell viability 72 h [24] [nM] | IC50, cell viability 72 h [25] [nM] | IC50, cell viability 72 h [26] [nM] | IC50, cell viability 72 h [27] [nM] | IC50, cell viability 72 h [28] [nM] | IC50, cell viability 72 h [29] [nM] | IC50, cell viability 72 h [30] [nM] | IC50, cell viability 72 h [31] [nM] | IC50, cell viability 72 h [32] [nM] | IC50, cell viability 72 h [33] [nM] | IC50, cell viability 72 h [34] [nM] | IC50, cell viability 72 h [35] [nM]
1 | NCI-H69 (Small Cell Lung Carcinoma) | > 1000 | > 1000 | > 10000 | > 1000 | 59.5 | 546 | > 5000 | 5700 | > 10000 | 2370 | > 10000 | > 1000 | > 20000 | > 1000 | > 3000 | 4550 | 123 | 1110 | > 10000 | > 10000 | > 1000 | > 1 | > 10000 | > 300 | > 10000 | > 10000 | 4.64 | > 10000 | > 1000 | > 10000 | > 300 | > 2000 | > 10000 | > 10000 | 342
2 | SK-OV-3 (Ovarian Carcinoma) | > 1000 | > 1000 | > 10000 | > 1000 | > 1000 | 2680 | > 5000 | > 10000 | > 10000 | 2450 | > 10000 | > 1000 | > 20000 | 35.5 | > 3000 | > 10000 | > 300 | > 10000 | > 10000 | > 10000 | > 1000 | > 1 | > 10000 | > 300 | > 10000 | > 10000 | 732 | > 10000 | > 1000 | > 10000 | > 300 | > 2000 | > 10000 | > 10000 | > 1000
3 | CAL-54 (Kidney Carcinoma) | > 1000 | 102 | 873 | > 1000 | > 1000 | 2280 | > 5000 | > 10000 | > 10000 | 452 | 5490 | > 1000 | > 20000 | 38.5 | > 3000 | 3360 | 15.6 | 4710 | > 10000 | > 10000 | 936 | > 1 | > 10000 | > 300 | 5890 | 9910 | 399 | > 10000 | > 1000 | 7990 | 23.4 | 33.6 | 4130 | > 10000 | > 1000
4 | Mewo (Melanoma) | > 1000 | > 1000 | > 10000 | > 1000 | > 1000 | > 10000 | 3570 | > 10000 | > 10000 | 1420 | > 10000 | 569 | > 20000 | 413 | > 3000 | > 10000 | > 300 | > 10000 | > 10000 | > 10000 | > 1000 | > 1 | > 10000 | > 300 | > 10000 | > 10000 | 653 | > 10000 | > 1000 | > 10000 | > 300 | > 2000 | > 10000 | > 10000 | > 1000
5 | SW1271 (Small Cell Lung Carcinoma) | > 1000 | 947 | > 10000 | > 1000 | > 1000 | > 10000 | > 5000 | > 10000 | > 10000 | 1970 | > 10000 | 614 | > 20000 | 137 | > 3000 | > 10000 | 143 | > 10000 | > 10000 | > 10000 | > 1000 | > 1 | > 10000 | > 300 | > 10000 | > 10000 | 630 | > 10000 | > 1000 | > 10000 | > 300 | > 2000 | > 10000 | > 10000 | > 1000
